# Experimental data reported in paper PMC6099547, “Expression, Purification, and Characterization of a Novel Hybrid Peptide with Potent Antibacterial Activity” (Molecules : A Journal of Synthetic Chemistry and Natural …, 2018).
# Marks after values point to notes of the source that are not given here. Where a SMILES comes first, the peptide text is derived from it.
# Columns and labels:
# trypsin = experiment: Protease susceptibility, residual activity by inhibition zone assay; conditions: trypsin 10 μg/mL in PBS, peptide 1 μM in PBS; control without enzyme; agar diffusion inhibition zone, S. aureus ATCC25923; three replicates
# Description: Antibacterial activity of recombinant C–L was assayed by the agar diffusion method with S. aureus ATCC25923 as indicator strain. […] The same volume of PBS was used as negative control. The inhibition zone was measured after incubation overnight at 37 °C. […] CVCC1599 as indicator strains. The indicator strains were cultured at 37 °C to logarithmic stage and diluted to the concentration of 1 × 10^6 cfu/mL with Mueller–Hinton (MH) broth medium, and 180 µL culture was dispensed into per well of 96-well microtiter plate. Peptides were then serially diluted, and dilutions were added into the wells (final volume 200 µL). Each assay was performed in triplicate. After incubation at 37 °C for 12 h, the plate was assessed by measuring the OD600. The MIC was defined as the lowest concentration (at which there was no change in optical density) required to prevent the growth of bacteria.
# The stability of the purified recombinant C–L and synthesized C–L at different pH values (2.0–11.0) and different temperatures (37, 50, 60, 70, 80, 90, and 100 °C for 20 min) was evaluated. […] Stability of recombinant C–L and synthesized C–L was assessed by the agar diffusion method as described above and the inhibition zones were recorded. S. aureus ATCC25923 was used as the indicator strain and the inhibition zones were recorded.
# proteinase K = proteinase K (Parengyodontium album, UniProt P06873); experiment: as above; format: in vitro ADME; conditions: proteinase K 10 μg/mL in PBS, peptide 1 μM in PBS; control without enzyme; agar diffusion inhibition zone, S. aureus ATCC25923; three replicates
# Description: (§1) CVCC1599 as indicator strains. […] Each assay was performed in triplicate.
# pepsin = experiment: as above; format: in vitro ADME; conditions: pepsin 10 μg/mL in PBS, agar diffusion inhibition zone; for Functional activity maintained under pepsin: peptide 1 μM in PBS, control without enzyme, S. aureus ATCC25923, three replicates
# Description: as §1
# S. aureus ATCC 25923 = format: cell-based, Staphylococcus aureus; conditions: ATCC 25923, 12 h
# Description: as §1
# sheep erythrocytes = experiment: Hemolytic assay; format: cell-based; conditions: red cells of sheep
# Description: Peptide concentrations that caused 50% hemolysis of sheep erythrocytes at 540 nm were measured to evaluate the hemolytic activities. Sheep erythrocytes with 10 mM phosphate buffered saline (PBS)/0.1% (v/v) Triton X-100 (Sigma, San Francisco, CA, USA) added were used as negative/positive control. Assays were performed in triplicate.
# L. mono. CVCC1599 = format: cell-based, Listeria monocytogenes; conditions: 12 h
# Description: as §1
# E. coli CVCC245 = format: cell-based, Escherichia coli; conditions: CVCC245, 12 h
# Description: as §1
# Chain of proteinase K (P06873 106-384): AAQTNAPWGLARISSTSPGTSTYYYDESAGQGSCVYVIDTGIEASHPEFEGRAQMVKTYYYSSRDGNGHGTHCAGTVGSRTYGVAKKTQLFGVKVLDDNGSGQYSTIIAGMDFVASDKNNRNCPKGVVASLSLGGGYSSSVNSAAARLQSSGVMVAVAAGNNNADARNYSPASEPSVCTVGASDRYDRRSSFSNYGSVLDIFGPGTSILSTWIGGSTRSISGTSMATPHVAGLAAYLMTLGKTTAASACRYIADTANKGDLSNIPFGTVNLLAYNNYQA
SMILES,Functional activity maintained under trypsin (trypsin),Functional activity maintained under proteinase K (proteinase K),Functional activity maintained under pepsin (pepsin),Reduction in activity when exposed to pepsin (pepsin; peptide 1 μM),MIC (S. aureus ATCC 25923),HC50 (hemolytic activity) (sheep erythrocytes),MIC (L. mono. CVCC1599),MIC (E. coli CVCC245)
"CC[C@H](C)[C@H](NC(=O)[C@H](CCCCN)NC(=O)[C@H](CCCCN)NC(=O)[C@H](Cc1ccccc1)NC(=O)[C@H](CC(C)C)NC(=O)[C@H](CCCCN)NC(=O)[C@H](Cc1c[nH]c2ccccc12)NC(=O)[C@@H](N)CCCCN)C(=O)N[C@@H](Cc1ccccc1)C(=O)N[C@@H](CCCCN)C(=O)N[C@@H](CCCNC(=N)N)C(=O)N[C@H](C(=O)N[C@H](C(=O)N[C@@H](CCC(N)=O)C(=O)N[C@@H](CCCNC(=N)N)C(=O)N[C@H](C(=O)N[C@@H](CCCCN)C(=O)N[C@@H](CC(=O)O)C(=O)N[C@@H](Cc1ccccc1)C(=O)N[C@@H](CC(C)C)C(=O)N[C@@H](CCCNC(=N)N)C(=O)N[C@@H](CC(N)=O)C(=O)O)[C@@H](C)CC)C(C)C)[C@@H](C)CC [C–L, cecropin A (1–8)–LL37 (17–30)] (H-KWKLFKKIFKRIVQRIKDFLRN-OH)",over 50%,over 50%,over 50%,nearly half reduction in activity,,,,
CC[C@H](C)[C@H](NC(=O)[C@H](CCCCN)NC(=O)[C@H](CCCCN)NC(=O)[C@H](Cc1ccccc1)NC(=O)[C@H](CC(C)C)NC(=O)[C@H](CCCCN)NC(=O)[C@H](Cc1c[nH]c2ccccc12)NC(=O)[C@@H](N)CCCCN)C(=O)N[C@@H](Cc1ccccc1)C(=O)N[C@@H](CCCCN)C(=O)N[C@@H](CCCNC(=N)N)C(=O)N[C@H](C(=O)N[C@H](C(=O)N[C@@H](CCC(N)=O)C(=O)N[C@@H](CCCNC(=N)N)C(=O)N[C@H](C(=O)N[C@@H](CCCCN)C(=O)N[C@@H](CC(=O)O)C(=O)N[C@@H](Cc1ccccc1)C(=O)N[C@@H](CC(C)C)C(=O)N[C@@H](CCCNC(=N)N)C(=O)N[C@@H](CC(N)=O)C(=O)O)[C@@H](C)CC)C(C)C)[C@@H](C)CC [Recombinant C–L] (H-KWKLFKKIFKRIVQRIKDFLRN-OH),almost the same stability,almost the same stability,almost the same stability,,2.2 ± 0.05 ^c μg/mL,221 ± 3.45 ^a μg/mL,2.1 ± 0.03 ^c μg/mL,7.2 ± 0.14 ^b μg/mL
CC[C@H](C)[C@H](NC(=O)[C@H](CCCCN)NC(=O)[C@H](CCCCN)NC(=O)[C@H](Cc1ccccc1)NC(=O)[C@H](CC(C)C)NC(=O)[C@H](CCCCN)NC(=O)[C@H](Cc1c[nH]c2ccccc12)NC(=O)[C@@H](N)CCCCN)C(=O)N[C@@H](Cc1ccccc1)C(=O)N[C@@H](CCCCN)C(=O)N[C@@H](CCCNC(=N)N)C(=O)N[C@H](C(=O)N[C@H](C(=O)N[C@@H](CCC(N)=O)C(=O)N[C@@H](CCCNC(=N)N)C(=O)N[C@H](C(=O)N[C@@H](CCCCN)C(=O)N[C@@H](CC(=O)O)C(=O)N[C@@H](Cc1ccccc1)C(=O)N[C@@H](CC(C)C)C(=O)N[C@@H](CCCNC(=N)N)C(=O)N[C@@H](CC(N)=O)C(=O)O)[C@@H](C)CC)C(C)C)[C@@H](C)CC [Synthesized C–L] (H-KWKLFKKIFKRIVQRIKDFLRN-OH),maintained a portion of functional activity,maintained a portion of functional activity,maintained a portion of functional activity,,2.0 ± 0.02 ^c μg/mL,219 ± 2.98 ^a μg/mL,2.2 ± 0.05 ^c μg/mL,7.0 ± 0.21 ^b μg/mL
